Laboratory results from patent US10543183B2, “Treatment and diagnosis of melanoma” (The Rockefeller University, priority 2012, dated 2020).

Experiments:
[1] = test system: ApoE expression in human melanoma cells; assay: ApoE mRNA expression by qRT-PCR in melanoma cells; type: cell-based; settings: MeWo cells; 500 nM, 1 μM, or 2 μM for 48 hours
Description: Total RNA was extracted from various cell lines using the miRvana kit (AM1560, Applied Biosystems, Austin, Tex.). The expression levels of mature miRNAs were quantified using the Taqman miRNA expression assay (4427975-0002228, Applied Biosystems). RNU44 was used as an endogenous control for normalization. For mRNA expression analyses, 600 ng of total RNA was reverse transcribed using the cDNA First-Strand Synthesis Kit (18080-051, Invitrogen), and roughly 200 ng of the resulting cDNA was then mixed with SYBR green PCR Master Mix (4309155, Applied Biosystems) and the appropriate primers. Each reaction was performed in quadruplicate, and mRNA expression was quantified by performing real-time PCR amplification using an ABI Prism 7900HT Real-Time PCR System (Applied Biosystems). GAPDH was used as an endogenous control for normalization. The following primers were used: […]
RNA was extracted from whole cell lysates using the Total RNA Purification Kit (17200, Norgen, Thorold, Canada). 600 ng of total RNA was then reverse transcribed into cDNA using the cDNA First-Strand Synthesis Kit (18080-051, Invitrogen), and quantitative real-time PCR amplification was performed as previously described (Pencheva et al., 2012) using an ABI Prism 7900HT Real-Time PCR System (Applied Biosystems, Austin, Tex.). Each PCR reaction was carried out in quadruplicates. Gene expression was normalized to GAPDH, which was used as an endogenous control.
For every sample, 600 ng of RNA was reverse transcribed into cDNA using the cDNA First-Strand Synthesis kit (Invitrogen). Approximately 200 ng of cDNA was mixed with SYBR® green PCR Master Mix and the corresponding forward and reverse primers specific for detection of human ApoE. Each reaction was carried out in quadruplicates, and ApoE mRNA expression levels were measured by quantitative real-time PCR amplification using an ABI Prism 7900HT Real-Time PCR System (Applied Biosystems). The relative ApoE expression was determined using the ΔΔCt method. GAPDH was used as an endogenous control for normalization purposes.

[2] = test system: B16F10 mouse melanoma cells; assay: subcutaneous B16F10 tumor growth in mice; type: in vivo; settings: 50 mg/kg, i.p., daily
Description: First, the cells were treated with 500 μg/mL DTIC for one week. Following this initial DTIC treatment, the remaining (˜10%) viable cells were allowed to recover for one week, after which 750 μg/mL of DTIC was added to the cell media for 5 days. Subsequent to this high-dose treatment, the cells were allowed to recover in the presence of low-dose DTIC (100 μg/mL) for one week. The cells were then continuously cultured in cell media containing 200 μg/mL DTIC for at least one month prior to grafting the cells into mice. DTIC was added to fresh cancer cell media every 3 days. […] DTIC was dissolved in the presence of citric acid (1:1 by weight) in water and administered daily by intraperitoneal injection.

[3] = test system: B16F10 mouse melanoma cells; assay: subcutaneous B16F10 tumor growth in mice; type: in vivo; settings: 50 mg/kg, i.p., daily; remark: listed apart in the source
[4] = test system: human melanoma cells (MeWo, MeWo-LM2, HT-144, SK-Mel-2, SK-Mel-334.2); assay: trans-well matrigel cell invasion assay, melanoma cells; type: cell-based; settings: MeWo, HT-144, SK-Mel-2, SK-Mel-334.2; 1 μM for 72 hours
Description: Cancer cells were serum-starved in 0.2% FBS DMEM-based media for 12 hours. Trans-well invasion chambers (354480, BD Biosciences, Bedford, Mass.) were pre-equilibrated prior to beginning the assay by adding 0.5 mL of starvation media to the top and bottom chambers. After 30 minutes, the media in the top chamber was removed, and 0.5 mL of media containing 1×10^5 cancer cells was added into each matrigel-coated trans-well insert and incubated at 37° C. for 24 hours. For neutralization antibody and/or recombinant protein experiments, antibody/recombinant protein was added to each well at the start of the assay at the following concentrations as indicated in the figures: 5-40 μg/mL anti-ApoE 1D7 (Heart Institute, University of Ottawa), 5-40 μg/mL anti-IgG (AB-108-C, R&D Systems, Minneapolis, Minn.), 100 μM recombinant human ApoE3 (4696, BioVision, Mountain View, Calif.), and 100 μM BSA (A2153, Sigma-Aldrich). Upon completion of the assay, matrigel-coated inserts were washed with PBS, the cells at the top side of each insert were scraped off, and the inserts were fixed in 4% paraformaldehyde for 15 minutes. The inserts were then cut out and mounted onto slides using VectaShield mounting medium containing DAPI (H-1000, Vector Laboratories, Burlingame, Calif.). The basal side of each insert was imaged using an inverted fluorescence microscope (Zeiss Axiovert 40 CFL) at 5× magnification, taking three representative images for each insert. The number of invaded cells was quantified using ImageJ (NIH).
The cell invasion assay was performed as previously described in detail (Pencheva et al., 2012) using a trans-well matrigel invasion chamber system (354480, BD Biosciences). In brief, various melanoma cells were cultured in the presence of DMSO, GW3965, T0901317, or Bexarotene at 1 μM for 56 hours, after which melanoma cells were switched to starvation media (0.2% FBS) for 16 hours in the presence of each drug. Following starvation, cells were seeded into matrigel-coated trans-well inserts, and the invasion assay was allowed to proceed for 24 hours at 37° C. For ApoE antibody neutralization experiments, 40 μg/mL 1D7 anti-ApoE blocking antibody (Heart Institute, University of Ottawa, Ottawa, Canada) or 40 μg/mL anti-IgG control antibody (AB-108-C, R&D Systems, Minneapolis, Minn.) was added to each trans-well insert at the start of the assay.
The cells were then serum starved for 16 hours in 0.2% FBS media in the presence of each corresponding drug or DMSO. Following serum starvation, the cells were subjected to the trans-well invasion assay using a matrigel invasion chamber system (354480, BD Biosciences). Invasion chambers were pre-equilibrated prior to the assay by adding 0.5 mL of starvation media to the top and bottom wells. Meanwhile, cancer cells were trypsinized and viable cells were counted using trypan blue. Cancer cells were then resuspended at a concentration of 2×10^5 cells/1 mL starvation media, and 0.5 mL of cell suspension, containing 1×10^5 cells, was seeded into each trans-well. The invasion assay was allowed to proceed for 24 hours at 37° C. […] Following fixation, the inserts were washed in PBS, cut out, and mounted onto slides using VectaShield mounting medium containing DAPI nuclear stain (H-1000, Vector Laboratories). The basal side of each insert was imaged using an inverted fluorescence microscope (Zeiss Axiovert 40 CFL) at 5× magnification, and the number of DAPI-positive cells was quantified using ImageJ.

[5] = test system: endothelial cells (HUVEC) recruited by human melanoma cells; assay: trans-well endothelial recruitment assay; type: cell-based; settings: MeWo, HT-144, SK-Mel-2, SK-Mel-334.2; 1 μM for 72 hours
Description: 5×10^4 cancer cells were seeded into 24-well plates approximately 24 hours prior to the start of the assay. HUVEC's were grown to 80% confluency and serum starved in EGM-2 media supplemented with 0.2% FBS for 16 hours. HUVEC's were then pulsed with Cell Tracker Red CMTPX dye (C34552, Invitrogen) for 45 minutes. Meanwhile, cancer cells were washed with PBS, 0.5 mL of 0.2% FBS EGM-2 media was added to each well, and a 3.0 μm HTS Fluoroblock insert (351151, BD Falcon, San Jose, Calif.) was placed into each well. 1×10^5 HUVEC's, resuspended in 0.5 mL of starvation media, were seeded into each trans-well insert, and the recruitment assay was allowed to proceed for 16-18 hours at 37° C. For neutralization antibody and/or recombinant protein experiments, antibody/protein was then added to each well at the appropriate concentration as indicated in the figures: 40 μg/mL anti-ApoE 1D7, 40 μg/mL anti-IgG, 100 μM rhApoE3, and 100 μM BSA. Upon completion of the assay, the inserts were processed and analyzed as described for the matrigel invasion assay above (See Matrigel Invasion Assay).
The endothelial recruitment assay was carried out as previously described (Pencheva et al., 2012; Png et al., 2012). Melanoma cells were treated with DMSO, GW3965, T0901317, or Bexarotene at 1 μM for 56 hours, after which 5×10^4 cells were seeded in a 24-well plate in the presence of each drug and allowed to attach for 16 hours prior to starting the assay. HUVEC cells were serum-starved overnight in EGM-2 media containing 0.2% FBS. The following day, 1×10^5 HUVEC cells were seeded into a 3.0 μm HTS Fluoroblock trans-well migration insert (351151, BD Falcon, San Jose, Calif.) fitted into each well containing cancer cells at the bottom. The HUVEC cells were allowed to migrate towards the cancer cells for 20 hours at 37° C., after which the inserts were processed as previously described (Pencheva et al., 2012). For ApoE antibody neutralization experiments, 40 μg/mL 1D7 anti-ApoE blocking antibody (Heart Institute, University of Ottawa, Ottawa, Canada) or 40 μg/mL anti-IgG control antibody (AB-108-C, R&D Systems, Minneapolis, Minn.) was added to each trans-well insert at the start of the assay.
Subsequently, 5×10^4 cancer cells were seeded into 24-well plates in the presence of each drug or DMSO and allowed to attach for 16 hours prior to starting the assay. Human umbilical vein endothelial cells (HUVEC cells) were serum-starved in 0.2% FBS-containing media overnight. The following day, 1×10^5 HUVEC cells were seeded into a 3.0 μm HTS Fluoroblock insert (351151, BD Falcon) fitted into each well containing the cancer cells at the bottom. The HUVEC cells were allowed to migrate towards the cancer cells for 20 hours, after which the inserts were washed in PBS, fixed in 4% PFA, labeled with DAPI, and mounted on slides. The basal side of each insert was imaged using an inverted fluorescence microscope (Zeiss Axiovert 40 CFL) at 5× magnification, and the number of DAPI-positive cells was quantified using ImageJ.

melanoma cells = assay: cell proliferation and viability assay; type: cell-based, human; settings: MeWo, HT-144, SK-Mel-334.2; 1 μM, 5 days
Description: To determine the effects of miR-199a or miR-1908 over-expression and combinatorial LNA-induced miRNA inhibition on cell proliferation, 2.5×10^4 cells were seeded in triplicate in 6-well plates, and viable cells were counted after 5 days. […] Viable cells were counted after 8, 24, 48, 72, and 120 hours.
After 5 days, the number of viable and dead cells was counted using the trypan blue dye (72-57-1, Sigma-Aldrich), which selectively labels dead cells.

Fc1ccc(-c2c3cccc(C(F)(F)F)c3nn2Cc2ccc(F)cc2Cl)cc1 [LXR-623 3]
ApoE expression induction [1]: varied degrees of ApoE expression induction

CN(C)/N=N/c1[nH]cnc1C(N)=O [dacarbazine, reference compound]
tumor growth by B16F10 DTIC-resistant cells [2]: did not affect
growth of DTIC-sensitive parental B16F10 line [3]: significantly suppressed

C=C(c1ccc(C(=O)O)cc1)c1cc2c(cc1C)C(C)(C)CCC2(C)C [bexarotene, reference compound]
ability of melanoma cells to invade through matrigel [4]: suppressed invasion only in half of the melanoma lines tested
ability of melanoma cells to recruit endothelial cells [5]: did not significantly affect
cell proliferation or cell viability rates (melanoma cells): did not affect
